From patent US10611779B2, “Fused bicyclic heterocycle derivatives as pesticides” (Bayer CropScience Aktiengesellschaft, priority 2016, dated 2020)

How the values were obtained:
[1] = log P (neutral) by HPLC on reversed-phase column (EEC Directive 79/831 Annex V.A8); format: physicochemical; details: reversed-phase C18 HPLC column, reversed-phase C 18, 55° C., neutral range pH 7.8
Method: The log P values are measured according to EEC Directive 79/831 Annex V.A8 by HPLC (high-performance liquid chromatography) on a reversed-phase column (C 18). Temperature: 55° C. The LC-MS determination in the neutral range is effected at pH 7.8 with 0.001 molar aqueous ammonium hydrogencarbonate solution and acetonitrile as eluents; linear gradient from 10% acetonitrile to 95% acetonitrile. Called log P (neutral) in the table. Calibration is effected using unbranched alkan-2-ones (having 3 to 16 carbon atoms) with known log P values (log P values determined on the basis of the retention times by linear interpolation between two successive alkanones).

[2] = test system: Myzus persicae; assay: Myzus persicae - spray test; format: in vivo; details: application rate 100 g/ha; Chinese cabbage leaf discs, all stages; after 5 days
Method: Myzus persicae—Spray Test [table] To produce a suitable active ingredient formulation, 1 part by weight of active ingredient is dissolved with the specified parts by weight of solvent and made up to the desired concentration with water containing an emulsifier concentration of 1000 ppm. To produce further test concentrations, the formulation is diluted with emulsifier-containing water. Discs of Chinese cabbage leaves (Brassica pekinensis) infested by all stages of the green peach aphid (Myzus persicae) are sprayed with an active ingredient formulation of the desired concentration. After 5 days, the efficacy in % is determined. 100% means that all the aphids have been killed; 0% means that no aphids have been killed.

[3] = test system: Myzus persicae; assay: Myzus persicae - oral test; format: in vivo; details: microtitre plate, after 5 days
Method: Myzus persicae—Oral Test [table] To produce a suitable active ingredient formulation, 1 part by weight of active ingredient is dissolved with the stated parts by weight of solvent and made up to the desired concentration with water. 50 μl of the active ingredient preparation are transferred into microtitre plates and made up to a final volume of 200 μl with 150 μl of IPL41 insect medium (33%+15% sugar). Subsequently, the plates are sealed with parafilm, which a mixed population of green peach aphids (Myzus persicae) within a second microtitre plate is able to puncture and imbibe the solution. After 5 days, the efficacy in % is determined. 100% means that all the aphids have been killed; 0% means that no aphids have been killed.

[4] = test system: Ctenocephalides felis; assay: Ctenocephalides felis - in vitro contact tests with adult cat fleas; format: in vivo; details: application rate 5 μg/cm^2 (=500 g/ha), coated glass tube, after 48 h
Method: Ctenocephalides felis—In Vitro Contact Tests with Adult Cat Fleas For the coating of the test tubes, 9 mg of active ingredient are first dissolved in 1 ml of acetone p.a. and then diluted to the desired concentration with acetone p.a. 250 μl of the solution are distributed homogeneously on the inner walls and the base of a 25 ml glass tube by turning and rocking on an orbital shaker (rocking rotation at 30 rpm for 2 h). With 900 ppm of active ingredient solution and internal surface area 44.7 cm^2, given homogeneous distribution, an area-based dose of 5 μg/cm^2 is achieved. After the solvent has evaporated off, the tubes are populated with 5-10 adult cat fleas (Ctenocephalides felis), sealed with a perforated plastic lid and incubated in a horizontal position at room temperature and ambient humidity. After 48 h, efficacy is determined. To this end, the tubes are stood upright and the fleas are knocked to the base of the tube. Fleas which remain motionless at the base or move in an uncoordinated manner are considered to be dead or moribund. […] 100% efficacy means that all the fleas were dead or moribund. 0% efficacy means that no fleas were harmed.

[5] = test system: Ctenocephalides felis; assay: Ctenocephalides felis - oral test; format: in vivo; details: application rate 100 ppm; in citrated cattle blood; after 2 days
Method: Ctenocephalides felis—Oral Test Solvent: dimethyl sulfoxide To produce a suitable active ingredient formulation, 10 mg of active ingredient are mixed with 0.5 ml of dimethyl sulfoxide. Dilution with citrated cattle blood gives the desired concentration. About 20 unfed adult cat fleas (Ctenocephalides felis) are placed into a chamber which is closed at the top and bottom with gauze. A metal cylinder whose bottom end is closed with parafilm is placed onto the chamber. The cylinder contains the blood/active ingredient formulation, which can be imbibed by the fleas through the parafilm membrane. After 2 days, the kill in % is determined. 100% means that all of the fleas have been killed; 0% means that none of the fleas have been killed.

[6] = test system: Lucilia cuprina; assay: Lucilia cuprina test; format: in vivo; details: application rate 100 ppm; minced horsemeat; after 2 days
Method: Lucilia cuprina Test Solvent: dimethyl sulfoxide To produce a suitable active ingredient formulation, 10 mg of active ingredient are mixed with 0.5 ml of dimethyl sulfoxide, and the concentrate is diluted with water to the desired concentration. About 20 L1 larvae of the Australian sheep blowfly (Lucilia cuprina) are transferred into a test vessel containing minced horsemeat and the active ingredient formulation of the desired concentration. After 2 days, the kill in % is determined. 100% means that all the larvae have been killed; 0% means that no larvae have been killed.

[7] = test system: Tetranychus urticae; assay: Tetranychus urticae - spray test, OP-resistant; format: in vivo; details: application rate 20 g/ha; bean leaf discs, all stages; after 6 days
Method: Tetranychus urticae—Spray Test, OP-Resistant
(§1) To produce a suitable active ingredient formulation, 1 part by weight of active ingredient is dissolved with the specified parts by weight of solvent and made up to the desired concentration with water containing an emulsifier concentration of 1000 ppm. To produce further test concentrations, the formulation is diluted with emulsifier-containing water.
Discs of bean leaves (Phaseolus vulgaris) infested with all stages of the greenhouse red spider mite (Tetranychus urticae) are sprayed with an active ingredient formulation of the desired concentration.
After 6 days, the efficacy in % is determined. 100% means that all the spider mites have been killed; 0% means that no spider mites have been killed.

[8] = test system: Boophilus microplus; assay: Boophilus microplus - injection test; format: in vivo; details: application rate 20 μg/animal; injection into engorged adult female ticks; after 7 days
Method: Boophilus microplus—Injection Test Solvent: dimethyl sulfoxide To produce a suitable active ingredient formulation, 10 mg of active ingredient are mixed with 0.5 ml of solvent and the concentrate is diluted to the desired concentration with solvent. 1 μl of the active ingredient solution is injected into the abdomen of 5 engorged adult female cattle ticks (Boophilus microplus). The animals are transferred into dishes and kept in a climate-controlled room. Efficacy is assessed after 7 days by laying of fertile eggs. Eggs which are not visibly fertile are stored in a climate-controlled cabinet until the larvae hatch after about 42 days. An efficacy of 100% means that none of the ticks has laid any fertile eggs; 0% means that all the eggs are fertile.

[9] = test system: Phaedon cochleariae; assay: Phaedon cochleariae - spray test; format: in vivo; details: application rate 100 g/ha; Chinese cabbage leaf discs; after 7 days
Method: Phaedon cochleariae—Spray Test
as §1
Discs of Chinese cabbage leaves (Brassica pekinensis) are sprayed with an active ingredient formulation of the desired concentration and, after drying, populated with larvae of the mustard beetle (Phaedon cochleariae).
After 7 days, the efficacy in % is determined. 100% means that all the beetle larvae have been killed; 0% means that no beetle larvae have been killed.

[10] = test system: Spodoptera frugiperda; assay: Spodoptera frugiperda - spray test; format: in vivo; details: application rate 100 g/ha; maize leaf discs; after 7 days
Method: Spodoptera frugiperda—Spray Test [table] To produce a suitable active ingredient formulation, 1 part by weight of active ingredient is dissolved with the specified parts by weight of solvent and made up to the desired concentration with water containing an emulsifier concentration of 1000 ppm. To produce further test concentrations, the formulation is diluted with emulsifier-containing water. Leaf discs of maize (Zea mays) are sprayed with an active ingredient formulation of the desired concentration and, after drying, populated with caterpillars of the armyworm (Spodoptera frugiperda). After 7 days, the efficacy in % is determined. 100% means that all the caterpillars have been killed; 0% means that no caterpillar has been killed.

[11] = test system: Musca domestica; assay: Musca domestica test; format: in vivo; details: application rate 100 ppm; sponge with sugar solution; after 2 days
Method: Musca domestica Test Solvent: dimethyl sulfoxide To produce a suitable active ingredient formulation, 10 mg of active ingredient are mixed with 0.5 ml of dimethyl sulfoxide, and the concentrate is diluted with water to the desired concentration. Vessels containing a sponge treated with sugar solution and the active ingredient formulation of the desired concentration are populated with 10 adult houseflies (Musca domestica). After 2 days, the kill in % is determined. 100% means that all of the flies have been killed; 0% means that none of the flies have been killed.

Row | SMILES | chromatographic logP [1] | efficacy (aphids killed) [2] | efficacy (aphids killed) ([3]; application rate 4 ppm) | efficacy (aphids killed) ([3]; application rate 20 ppm) | efficacy (fleas dead or moribund) [4] | efficacy (kill of fleas) [5] | efficacy (kill of L1 larvae) [6] | efficacy (spider mites killed) [7] | efficacy (no laying of fertile eggs) [8] | efficacy (beetle larvae killed) [9] | efficacy (caterpillars killed) [10] | efficacy (kill of adult houseflies) [11]
1 | Cn1c(-c2nn3ccccc3c2Br)nc2cc(C(F)(F)F)ncc21 [2-(3-Bromopyrazolo[1,5-a]pyridin-2-yl)-3-methyl-6-(trifluoromethyl)imidazo[4,5-c]pyridine] | 2.86 | – | – | – | – | – | – | – | – | – | – | –
2 | CCS(=O)(=O)c1c(-c2nc3cc(C(F)(F)F)ncc3n2C)nn2ccccc12 [Example I-1, 2-(3-Ethylsulfonylpyrazolo[1,5-a]pyridin-2-yl)-3-methyl-6-(trifluoromethyl)imidazo[4,5-c]pyridine] | 2.26 | 100% | 100% | 100% | 100% | 100% | 100% | – | – | – | – | –
3 | CCS(=O)(=O)c1c(-c2nc3cc(C(F)(F)F)ncc3n2C)nn2cccnc12 [Example I-2, 2-(3-Ethylsulfonylpyrazolo[1,5-a]pyrimidin-2-yl)-3-methyl-6-(trifluoromethyl)imidazo[4,5-c]-pyridine] | 1.58 | 90% | 100% | 100% | – | – | – | 90% | – | – | – | –
4 | CCS(=O)(=O)c1c(-c2nc3cc(C(F)(F)F)ncc3n2C)nn2c(C)cc(C)nc12 [Example I-3, 3-Ethylsulfonyl-5,7-dimethyl-2-[3-methyl-6-(trifluoromethyl)imidazo[4,5-c]pyridin-2-yl]-pyrazolo[1,5-a]pyrimidine] | 2 | 100% | 100% | 100% | – | 100% | 97% | – | 100% | – | – | –
5 | CCS(=O)(=O)c1c(-c2nc3cc(C(F)(F)F)cnc3n2C)nn2ccccc12 [Example I-4] | – | 90% | 100% | – | 100% | – | 100% | – | – | 100% | 100% | 90%
6 | CCS(=O)(=O)c1c(-c2nc3cc(C(F)(F)F)ncc3n2C)nn2cc(Cl)ccc12 [Example I-5] | – | – | 100% | – | – | – | – | – | – | 100% | 100% | –
7 | CCS(=O)(=O)c1c(-c2nc3cc(C(F)(F)F)cnc3n2C)nn2cc(Cl)ccc12 [Example I-6] | – | 90% | 100% | – | – | – | – | – | – | 100% | 100% | –
